From patent US12351561B2, “Crystalline (2S,4R)-5-(5'-chloro-2'-fluoro-[1,1'-biphenyl]-4-yl)-2-(ethoxymethyl)-4-(3-hydroxyisoxazole-5-carboxamido)-2-methylpentanoic acid and uses thereof” (THERAVANCE BIOPHARMA R&D IP, LLC, priority 2016, dated 2025)

What was measured:
[1] = Assay 1: IV/PO pharmacokinetic study in rats; format: in vivo, male Sprague-Dawley rats; details: rat; for AUC(0-t) / bioavailability: plasma; for AUC(0-t): read-out: AUClast Mean; for bioavailability: po
Method: (§1) Each rat, dog or monkey PK study began with formulation of the test compound. Appropriate masses of each test compound were added into a volume of vehicle (e.g. 5% sodium bicarbonate, 5% dextrose in H2O) such that the final concentration of each compound was appropriate to be dosed. Although a homogenous suspension were acceptable for oral dosing, intravenous dosing solutions were sterile-filtered (0.2 μm) prior to dosing to ensure no particulates were administered.
In the rat study, pre-cannulated male Sprague-Dawley rats (3 per route) were obtained from Harlan Laboratories or Charles Rivers Laboratories. Rats received either a oral dose delivered into the stomach using a syringe and gavage tube or a intravenous (via lateral tail vein) dose of the dosing solution. The final dose was 0.5 mg/kg. Serial blood samples were harvested via the cannula implanted in the jugular vein at 3 min, 15 min, 30 min, 1 h, 2 h, 4 h, 6 h, and 24 h post-dose. Sampling was performed either manually or using automated blood samplers. Samples were collected into microtainer tubes containing EDTA as the anticoagulant and were processed to plasma by refrigerated centrifugation.
(§2) Plasma concentrations of Compound I were determined by LC/MS/MS. Plasma study samples were vortexed and placed in a 96-well plate. The samples were extracted with 200 μL of acetonitrile with an internal standard. The extract was centrifuged for 10 minutes at 2809 RPM and 50 μL supernatant was mixed with 200 μL 0.2% formic acid in water. Samples (10-15 μL) were injected on a ThermoFisher HyPURITY™ (C18 50×2.1 mm) column with a flow rate of 0.35 mL/min. Mobile phase A consisted of water: acetonitrile: formic acid (95:5:0.1, v:v:v) and Mobile phase B consisted of methanol: acetonitrile: formic acid (50:50:0.1, v:v:v) (dog). Mobile phase A consisted of 0.2% formic acid in water and mobile phase B consisted of 0.2% formic acid in acetonitrile (rat and monkey). Pharmacokinetic parameters of Compound I were determined by non-compartmental analysis (Model 201 and Model 200 for IV and PO administration, respectively) using Phoenix WinNonlin Version 6.3 (Certara, Sunnyvale, CA) and using individual plasma concentration time profiles from 3 animals per treatment group.
(§3) Plasma clearance was determined from the intravenous arm of the study, and represents the rate at which plasma is cleared of drug. It is equal to the dose divided by the area under the plasma concentration-time curve. In addition to plasma clearance, it is also essential for an orally administered drug to reach efficacious systemic levels following oral delivery. Oral bioavailability is a measurement of plasma exposures following oral administration relative to exposures following intravenous administration.

[2] = Assay 1: IV/PO pharmacokinetic study in dogs; format: in vivo, male beagle dogs; details: dog; for bioavailability / AUC(0-t): plasma; for bioavailability: po; for AUC(0-t): read-out: AUClast Mean
Method: as §1
In the dog study, male non-naïve beagle dogs (3 per route) housed at Agilux Laboratories (Worcester, MA) and weighing between 9-14 kg received either an oral or intravenous dose. Oral doses were delivered into the stomach using a syringe and gavage tube followed by a water flush of approximately 10 mL. Oral doses were administered at a volume of 2 mL/kg. Intravenous doses were administered via a percutaneous catheter placed in sphenous vein followed by a saline flush of approximately 3 mL. Intravenous doses were administered at a volume of 0.5 mL/kg. […] Serial blood samples were harvested via direct venipuncture at 3 min, 15 min, 30 min, 1 h, 2 h, 4 h, 6 h, 8 h, 12 h, and 24 h post-dose. All samples were collected manually into microtainer tubes containing EDTA as the anticoagulant and were processed to plasma by refrigerated centrifugation.
as §2, §3

[3] = Assay 3: Phase 1 single-ascending dose study, safety and tolerability; format: in vivo, human; details: healthy volunteers, single doses up to 600 mg
Method: (§4) A Phase 1 single-ascending dose (SAD) clinical trial of Compound I′ (Form I), which converts to or dissolves to provide its soluble form Compound I in the body, was conducted in order to assess neprilysin inhibition for the treatment of a range of cardiovascular and renal diseases, including, e.g., chronic kidney disease, diabetic nephropathy, acute and chronic heart failure, heart failure with reduced ejection fraction, heart failure with preserved ejection fraction, post-myocardial infarction asymptomatic left ventricular dysfunction (post-MI asymptomatic LVD), subacute heart failure and resistant and isolated systolic hypertension. Safety and tolerability, pharmacokinetic (support for QD/BID dosing and non-renal excretion), pharmacodynamic (test for target engagement biomarkers cGMP and ANP), food effect, and absolute oral bioavailability and renal elimination using a ^14C intravenous microtracer, inter alia, were tested.
The Phase 1 study was a double-blind, randomized placebo-controlled single ascending dose study in healthy male and female volunteers randomized in a 4:1 ratio. The study enrolled 56 healthy volunteers over multiple weeks for the ascending-dose portion, which included cohorts (n=10/cohort of 8 active and 2 placebo) administered single ascending doses of 50 mg, 100 mg, 200 mg, 400 mg and 600 mg. […]

NEP [4] = biological target: T1, NEP (Homo sapiens, UniProt P08473); assay: Assay 3.1: NEP activity in human (cGMP), single-ascending dose study; format: in vivo
T1 construct: from tissue; host or cells: healthy human volunteers (in vivo)
Method: as §4
The Phase 1 study was a double-blind, randomized placebo-controlled single ascending dose study in healthy male and female volunteers randomized in a 4:1 ratio. The study enrolled 56 healthy volunteers over multiple weeks for the ascending-dose portion, which included cohorts (n=10/cohort of 8 active and 2 placebo) administered single ascending doses of 50 mg, 100 mg, 200 mg, 400 mg and 600 mg. A sixth cohort (n=6) was administered i.v. microtracer and oral doses of 10 μg and 100 mg, respectively.
One goal of this study was to determine the mechanism/duration of action of Compound I after dosing in humans.

[5] = Assay 4: Phase 1 multiple-ascending dose study, safety and tolerability; format: in vivo, human; details: healthy adult and elderly subjects, multiple oral doses up to 14 days
Method: A Phase 1 multiple-ascending dose (MAD) clinical trial of Compound I′ (Form I) was conducted in order to further evaluate the safety, tolerability, pharmacokinetics of Compound I and its metabolite, pharmacodynamics of Compound I, food effect, absolute oral bioavailability and renal elimination of multiple ascending oral doses of Compound I′ in healthy adult and elderly subjects. As discussed below, the reported data confirms the results stemming from the SAD clinical trial.
(§5) The Phase 1 study was a double-blind, randomized placebo-controlled multiple ascending dose study in healthy male and female volunteers randomized in a 4:1 ratio. The study enrolled 50 healthy adult (19-55 years old) and elderly (65-80 years old) volunteers over multiple weeks for the ascending-dose portion, which included cohorts (n=10/cohort of 8 active and 2 placebo) administered (1) ascending doses of 50 mg, 100 mg, and 200 mg, (2) a dose of 10 mg studied in parallel with 200 mg for PK/PK, and (3) a dose of 100 mg for one elderly cohort. […] Additionally, renal elimination of Compound I was neglible after multiple dosing, e.g., <1% was observed on Day 1 and Day 14 for all subjects.

NEP [6] = biological target: T1, NEP; assay: Assay 4.1: NEP activity in human (cGMP), multiple-ascending dose study; format: in vivo; details: healthy adult and elderly subjects, 10-200 mg once daily, Day 14, over 24 h
Method: as §5
Part of the MAD clinical studies was to determine the mechanism/duration of action of Compound I after dosing in humans.

T1 sequence (P08473 whole entry): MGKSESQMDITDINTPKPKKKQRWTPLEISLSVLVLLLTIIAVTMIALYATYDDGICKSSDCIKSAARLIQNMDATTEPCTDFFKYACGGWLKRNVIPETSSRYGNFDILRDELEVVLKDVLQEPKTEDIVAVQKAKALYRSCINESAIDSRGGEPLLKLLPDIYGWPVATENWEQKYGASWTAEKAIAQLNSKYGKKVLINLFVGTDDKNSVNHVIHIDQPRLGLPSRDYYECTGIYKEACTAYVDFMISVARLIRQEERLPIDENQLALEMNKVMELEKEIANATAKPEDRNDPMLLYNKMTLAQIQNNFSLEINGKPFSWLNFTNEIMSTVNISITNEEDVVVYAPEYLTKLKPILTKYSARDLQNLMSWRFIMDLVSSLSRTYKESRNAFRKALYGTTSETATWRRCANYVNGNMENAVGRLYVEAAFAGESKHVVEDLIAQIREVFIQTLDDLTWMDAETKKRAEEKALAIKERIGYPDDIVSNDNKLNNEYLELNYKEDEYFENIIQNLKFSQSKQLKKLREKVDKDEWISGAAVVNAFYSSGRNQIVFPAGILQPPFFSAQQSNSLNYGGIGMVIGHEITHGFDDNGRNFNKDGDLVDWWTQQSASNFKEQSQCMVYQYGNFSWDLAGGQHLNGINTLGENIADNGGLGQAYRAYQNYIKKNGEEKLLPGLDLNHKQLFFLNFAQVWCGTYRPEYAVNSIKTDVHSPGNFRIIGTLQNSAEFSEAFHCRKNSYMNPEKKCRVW

- AUC(0-t) ([1]; male, Sprague-Dawley, IV, 0.5 mg/kg): 390 ng·h/mL
- AUC(0-t) ([1]; male, Sprague-Dawley, PO, 0.5 mg/kg): 130 ng·h/mL
- bioavailability ([1]; male, Sprague-Dawley, 0.5 mg/kg, read-out: Oral Bioavailability Mean): ~33%
- CLlast Mean ([1]; IV, 0.5 mg/kg): 20.3 mL/min/kg
- CLlast Mean ([1]; PO, 0.5 mg/kg): 50.2 mL/min/kg
- bioavailability ([1]; higher doses (30-1000 mg/kg), data not shown, read-out: mean bioavailability): 49 to 79%
- CLlast Mean ([2]; PO, 0.1 mg/kg): 47.2 mL/min/kg
- bioavailability ([2]; higher doses (100-300 mg/kg), data not shown, read-out: mean bioavailability): 7 to 13%
- bioavailability ([2]; male, beagle, 0.1 mg/kg, read-out: Oral Bioavailability Mean): ~17%
- AUC(0-t) ([2]; male, beagle, IV, 0.1 mg/kg): 210 ng·h/mL
- AUC(0-t) ([2]; male, beagle, PO, 0.1 mg/kg): 34.9 ng·h/mL
- time window of the highest cGMP levels (NEP [4]; healthy subjects, after a single dose): 8 to 12 h
- dose levels at which plasma cGMP dose response shows near maximal effect (NEP [4]; healthy subjects, single dose): ≥ 100 mg
Compound: CCOC[C@](C)(C[C@@H](Cc1ccc(-c2cc(Cl)ccc2F)cc1)NC(=O)c1cc(O)no1)C(=O)O [Compound I, (2S,4R)-5-(5′-Chloro-2′-fluoro-[1,1′-biphenyl]-4-yl)-2-(ethoxymethyl)-4-(3-hydroxyisoxazole-5-carboxamido)-2-methylpentanoic Acid]
- tolerability [3]: well-tolerated
- change in mean plasma cGMP from baseline (NEP [4]; healthy subjects, single dose 50-600 mg, over 24 hours): sustained increase in mean plasma cGMP over 24-hours
- cGMP in plasma and urine (NEP [4]; human, SAD clinical trial, over 24h): sustained elevations of cGMP over 24h in both plasma and urine
- tolerability [5]: generally well-tolerated
- change in mean plasma cGMP from baseline (NEP [6]): sustained increase in mean plasma cGMP over 24 h
